Test results published in patent publication US20230085307A1, “PYRIDAZINONE COMPOUND AND HERBICIDE” (NISSAN CHEMICAL CORPORATION, priority 2019, published 2023).

Tests used:
barnyard grass [1] = assay: Test Example 3: herbicidal effect by foliage application, Wagner pot (Table 18, symbol H); format: in vivo, barnyard grass (Echinochloa crus-galli); conditions: amount of applied herbicide 320 g/ha
How it was run: (§1)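 Plants were sown in alluvial soil held under 0.1–0.5 cm standing water and grown 14 days in a greenhouse at 25–30 °C. An emulsifiable formulation, water-diluted to the set dose, was then sprayed onto the foliage, and effects were scored three weeks later using previously defined criteria.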

Chinese sprangletop = assay: Test Example 3: herbicidal effect by foliage application, Wagner pot (Table 18, symbol D); format: in vivo, chinese sprangletop (Leptochloa chinensis); conditions: amount of applied herbicide 320 g/ha
How it was run: as §1

rice flat sedge = assay: Test Example 3: herbicidal effect by foliage application, Wagner pot (Table 18, symbol E); format: in vivo, rice flat sedge (Cyperus iria); conditions: amount of applied herbicide 320 g/ha
How it was run: as §1

southern crabgrass [2] = assay: Test Example 4: herbicidal effect by soil treatment (Table 19, symbol F); format: in vivo, southern crabgrass (Digitaria ciliaris); conditions: amount of applied herbicide 320 g/ha
How it was run: (§2)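 Herbicidal effect was rated 3 weeks after treatment, using the scoring criteria of an earlier test. The compound, formulated as an emulsion and diluted in water to a set herbicide amount, had been sprayed uniformly on soil over freshly sown seeds. Growth took place in a greenhouse at 25° C. to 30° C.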

green foxtail [3] = assay: Test Example 4: herbicidal effect by soil treatment (Table 19, symbol G); format: in vivo, green foxtail (Setaria viridis); conditions: amount of applied herbicide 320 g/ha
How it was run: as §2

barnyard grass [4] = assay: Test Example 4: herbicidal effect by soil treatment (Table 19, symbol H); format: in vivo, barnyard grass (Echinochloa crus-galli); conditions: amount of applied herbicide 320 g/ha
How it was run: as §2

wild oat [5] = assay: Test Example 4: herbicidal effect by soil treatment (Table 19, symbol I); format: in vivo, wild oat (Avena fatua); conditions: amount of applied herbicide 320 g/ha
How it was run: as §2

blackgrass [6] = assay: Test Example 4: herbicidal effect by soil treatment (Table 19, symbol J); format: in vivo, blackgrass (Alopecurus myosuroides); conditions: amount of applied herbicide 320 g/ha
How it was run: as §2

Italian ryegrass [7] = assay: Test Example 4: herbicidal effect by soil treatment (Table 19, symbol K); format: in vivo, Italian ryegrass (Lolium multiflorum); conditions: amount of applied herbicide 320 g/ha
How it was run: as §2

windgrass [8] = assay: Test Example 4: herbicidal effect by soil treatment (Table 19, symbol L); format: in vivo, windgrass (Apera spica-venti); conditions: amount of applied herbicide 320 g/ha
How it was run: as §2

velvetleaf [9] = assay: Test Example 4: herbicidal effect by soil treatment (Table 19, symbol M); format: in vivo, velvetleaf (Abutilon theophrasti); conditions: amount of applied herbicide 320 g/ha
How it was run: as §2

redroot pigweed [10] = assay: Test Example 4: herbicidal effect by soil treatment (Table 19, symbol N); format: in vivo, redroot pigweed (Amaranthus retroflexus); conditions: amount of applied herbicide 320 g/ha
How it was run: as §2

lambsquarters [11] = assay: Test Example 4: herbicidal effect by soil treatment (Table 19, symbol O); format: in vivo, lambsquarters (Chenopodium album); conditions: amount of applied herbicide 320 g/ha
How it was run: as §2

chickweed [12] = assay: Test Example 4: herbicidal effect by soil treatment (Table 19, symbol P); format: in vivo, common chickweed (Stellaria media); conditions: amount of applied herbicide 320 g/ha
How it was run: as §2

false cleavers = assay: Test Example 4: herbicidal effect by soil treatment (Table 19, symbol Q); format: in vivo, false cleavers (Galium spurium); conditions: amount of applied herbicide 320 g/ha
How it was run: as §2

persian speedwell [13] = assay: Test Example 4: herbicidal effect by soil treatment (Table 19, symbol R); format: in vivo, Persian speedwell (Veronica persica); conditions: amount of applied herbicide 320 g/ha
How it was run: as §2

southern crabgrass [14] = assay: Test Example 5: herbicidal effect by foliage application, plastic box (Table 20, symbol F); format: in vivo, southern crabgrass (Digitaria ciliaris); conditions: foliage application, 320 g/ha, three weeks after application
How it was run: (§3)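 Foliar spray test: emulsion formulation diluted in water to a set application rate, sprayed onto 14-day-old plants raised in diluvial soil at 25° C to 30° C under glass. Both herbicidal effect and crop effect rated visually three weeks later.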

green foxtail [15] = assay: Test Example 5: herbicidal effect by foliage application, plastic box (Table 20, symbol G); format: in vivo, green foxtail (Setaria viridis); conditions: foliage application, 320 g/ha, three weeks after application
How it was run: as §3

barnyard grass [16] = assay: Test Example 5: herbicidal effect by foliage application, plastic box (Table 20, symbol H); format: in vivo, barnyard grass (Echinochloa crus-galli); conditions: foliage application, 320 g/ha, three weeks after application
How it was run: as §3

wild oat [17] = assay: Test Example 5: herbicidal effect by foliage application, plastic box (Table 20, symbol I); format: in vivo, wild oat (Avena fatua); conditions: foliage application, 320 g/ha, three weeks after application
How it was run: as §3

blackgrass [18] = assay: Test Example 5: herbicidal effect by foliage application, plastic box (Table 20, symbol J); format: in vivo, blackgrass (Alopecurus myosuroides); conditions: foliage application, 320 g/ha, three weeks after application
How it was run: as §3

Italian ryegrass [19] = assay: Test Example 5: herbicidal effect by foliage application, plastic box (Table 20, symbol K); format: in vivo, Italian ryegrass (Lolium multiflorum); conditions: foliage application, 320 g/ha, three weeks after application
How it was run: as §3

windgrass [20] = assay: Test Example 5: herbicidal effect by foliage application, plastic box (Table 20, symbol L); format: in vivo, windgrass (Apera spica-venti); conditions: foliage application, 320 g/ha, three weeks after application
How it was run: as §3

velvetleaf [21] = assay: Test Example 5: herbicidal effect by foliage application, plastic box (Table 20, symbol M); format: in vivo, velvetleaf (Abutilon theophrasti); conditions: foliage application, 320 g/ha, three weeks after application
How it was run: as §3

redroot pigweed [22] = assay: Test Example 5: herbicidal effect by foliage application, plastic box (Table 20, symbol N); format: in vivo, redroot pigweed (Amaranthus retroflexus); conditions: foliage application, 320 g/ha, three weeks after application
How it was run: as §3

lambsquarters [23] = assay: Test Example 5: herbicidal effect by foliage application, plastic box (Table 20, symbol O); format: in vivo, lambsquarters (Chenopodium album); conditions: foliage application, 320 g/ha, three weeks after application
How it was run: as §3

chickweed [24] = assay: Test Example 5: herbicidal effect by foliage application, plastic box (Table 20, symbol P); format: in vivo, common chickweed (Stellaria media); conditions: foliage application, 320 g/ha, three weeks after application
How it was run: as §3

persian speedwell [25] = assay: Test Example 5: herbicidal effect by foliage application, plastic box (Table 20, symbol R); format: in vivo, Persian speedwell (Veronica persica); conditions: foliage application, 320 g/ha, three weeks after application
How it was run: as §3

C=CCSc1ccc(-c2sc3ccc(F)cc3c2-c2c(O)c(C)nn(C)c2=O)cc1 [2-422]
herbicidal effect on H: barnyard grass (barnyard grass [1]): 5 (Herbicidal rate of 90% or more (almost completely withered)) | herbicidal effect on D: Chinese sprangletop (Chinese sprangletop): 3 (Herbicidal rate of 40% or more and less than 70%) | herbicidal effect on E: rice flat sedge (rice flat sedge): 5 (Herbicidal rate of 90% or more (almost completely withered)) | herbicidal effect, F: southern crabgrass (southern crabgrass [2]): 1 (Herbicidal rate of 5% or more and less than 20%) | herbicidal effect, G: green foxtail (green foxtail [3]): 2 (Herbicidal rate of 20% or more and less than 40%) | herbicidal effect, H: barnyard grass (barnyard grass [4]): 1 (Herbicidal rate of 5% or more and less than 20%) | herbicidal effect, I: wild oat (wild oat [5]): 0 (Herbicidal rate of 5% or less (almost no effect)) | herbicidal effect, J: blackgrass (blackgrass [6]): 0 (Herbicidal rate of 5% or less (almost no effect)) | herbicidal effect, K: Italian ryegrass (Italian ryegrass [7]): 0 (Herbicidal rate of 5% or less (almost no effect)) | herbicidal effect, L: windgrass (windgrass [8]): 0 (Herbicidal rate of 5% or less (almost no effect)) | herbicidal effect, M: velvetleaf (velvetleaf [9]): 1 (Herbicidal rate of 5% or more and less than 20%) | herbicidal effect, N: redroot pigweed (redroot pigweed [10]): 5 (Herbicidal rate of 90% or more (almost completely withered)) | herbicidal effect, O: lambsquarters (lambsquarters [11]): 3 (Herbicidal rate of 40% or more and less than 70%) | herbicidal effect, P: chickweed (chickweed [12]): 0 (Herbicidal rate of 5% or less (almost no effect)) | herbicidal effect, Q: false cleavers (false cleavers): 0 (Herbicidal rate of 5% or less (almost no effect)) | herbicidal effect, R: persian speedwell (persian speedwell [13]): 0 (Herbicidal rate of 5% or less (almost no effect)) | F: southern crabgrass, herbicidal effect grade (southern crabgrass [14]): 2 (Herbicidal rate of 20% or more and less than 40%) | G: green foxtail, herbicidal effect grade (green foxtail [15]): 5 (Herbicidal rate of 90% or more (almost completely withered)) | H: barnyard grass, herbicidal effect grade (barnyard grass [16]): 5 (Herbicidal rate of 90% or more (almost completely withered)) | I: wild oat, herbicidal effect grade (wild oat [17]): 5 (Herbicidal rate of 90% or more (almost completely withered)) | J: blackgrass, herbicidal effect grade (blackgrass [18]): 4 (Herbicidal rate of 70% or more and less than 90%) | K: Italian ryegrass, herbicidal effect grade (Italian ryegrass [19]): 5 (Herbicidal rate of 90% or more (almost completely withered)) | L: windgrass, herbicidal effect grade (windgrass [20]): 5 (Herbicidal rate of 90% or more (almost completely withered)) | M: velvetleaf, herbicidal effect grade (velvetleaf [21]): 5 (Herbicidal rate of 90% or more (almost completely withered)) | N: redroot pigweed, herbicidal effect grade (redroot pigweed [22]): 5 (Herbicidal rate of 90% or more (almost completely withered)) | O: lambsquarters, herbicidal effect grade (lambsquarters [23]): 5 (Herbicidal rate of 90% or more (almost completely withered)) | P: chickweed, herbicidal effect grade (chickweed [24]): 5 (Herbicidal rate of 90% or more (almost completely withered)) | R: persian speedwell, herbicidal effect grade (persian speedwell [25]): 5 (Herbicidal rate of 90% or more (almost completely withered))
